From US20200172483A1, “HETEROCYCLIC SMALL MOLECULE MODULATORS OF HUMAN STING” (Curadev Pharma Limited, priority 2017, published 2020)

Target: T1, WT/R232 STING protein (Homo sapiens, UniProt Q86WV6, H232R)
T1 construct: host or cells: HEK293T
Assay: Luciferase reporter assay in HEK293T-hSTING-Luciferase cells (R232)
Assay type: cell-based
Details: 20 hr stimulation, EC50 range
From the text: • a) Stable STING expressing cells—Stable HEK293T STING-expressing cell lines were generated using plasmids purchased from Invivogen, CA, USA, that contain STING cDNA cloned into the pUNO-1 vector under hEF1-HTLV promoter and containing the Blasticidin selection cassette. The plasmids hSTING (R232), hSTING (H232), hSTING (HAQ) were directly procured from Invivogen while hSTING (AQ) and hSTING (Q) were derived from hSTING (HAQ) and hSTING (R232) plasmids respectively by using a PCR based site directed mutagenesis method. These vectors were individually transfected into HEK293T cells using Lipofectamine (Invitrogen) and transfected cells were selected under Blasticidin selection. These transfected cells were further subjected to clonal selection using the limiting dilution method to obtain clonally pure populations of HEK cells transfected with each of the above mentioned human STING variants. Only those clones were selected in which ligand independent activation of STING was minimal. • b) Stable Luciferase reporter gene expressing cells—Stable HEK293T Luciferase reporter gene expressing cell lines were generated using pCDNA4 plasmids under an IRF-inducible promoter. This promoter is comprised of five tandem interferon-stimulated response elements (ISRE) fused to an ISG54 minimal promoter. This vector was transfected into HEK293T cells using Lipofectamine (Invitrogen) and transfected cells were selected under Zeocin selection. These transfected cells were further subjected to clonal selection using the limiting dilution method to obtain clonally pure populations of HEK cells transfected the Luciferase reporter construct. Only those clones were selected in which ligand independent induction of luciferase was minimal.
5×10^5 clonally selected HEK293T-hSTING-Luciferase cells were seeded in 384-well plates in growth medium and stimulated with novel compounds. After 20 hr of stimulation supernatant were removed and secretary reporter gene activity were measured using the Quanti-Luc detection system (Invivogen) on a Spectramax i3X luminometer.
All compounds were first tested in a primary screen using WT/R232 STING protein to obtain a ‘fold-induction’ over baseline levels of protein activity.

T1 sequence (Q86WV6 whole entry H232R): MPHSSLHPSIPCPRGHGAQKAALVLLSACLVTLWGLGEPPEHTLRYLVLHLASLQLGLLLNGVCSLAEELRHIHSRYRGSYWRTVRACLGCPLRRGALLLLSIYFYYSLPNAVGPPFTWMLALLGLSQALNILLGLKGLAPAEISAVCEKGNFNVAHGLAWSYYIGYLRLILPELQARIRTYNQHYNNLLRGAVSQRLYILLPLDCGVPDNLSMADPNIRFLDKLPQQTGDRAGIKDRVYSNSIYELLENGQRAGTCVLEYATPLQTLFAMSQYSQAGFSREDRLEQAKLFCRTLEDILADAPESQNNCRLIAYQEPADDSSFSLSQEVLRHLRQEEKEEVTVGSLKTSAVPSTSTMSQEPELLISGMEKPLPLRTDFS

Row | SMILES | EC50 [µM]
1 | CC1(C)C(=O)N(Cc2ccccc2F)c2cc(C(=O)NCc3ccco3)ccc21 [Example 1, 1-(2-Fluorobenzyl)-N-(furan-2-ylmethyl)-3,3-dimethyl-2-oxoindoline-6-carboxamide] | 1 to 10
2 | CC1(C)C(=O)N(Cc2ccccc2F)c2cc(C(=O)N(CC(=O)O)Cc3ccco3)ccc21 [Example 3, 2-(1-(2-fluorobenzyl)-N-(furan-2-ylmethyl)-3,3-dimethyl-2-oxoindoline-6-carboxamido)acetic acid] | > 10
3 | CC1(C)C(=O)N(Cc2c(F)cccc2Cl)c2cc(C(=O)NCc3cccs3)ccc21 [Example 7, 1-(2-chloro-6-fluorobenzyl)-3,3-dimethyl-2-oxo-N-(thiophen-2-ylmethyl)indoline-6-carboxamide] | 1 to 10
4 | CC1(C)C(=O)N(Cc2c(F)cccc2Cl)c2cc(C(=O)NCc3cccc(Cl)c3)ccc21 [Example 9, 1-(2-chloro-6-fluorobenzyl)-N-(3-chlorobenzyl)-3,3-dimethyl-2-oxoindoline-6-carboxamide] | 1 to 10
5 | CC1(C)C(=O)N(Cc2ccccc2)c2cc(C(=O)NCc3ccccc3)ccc21 [Example 10, N,1-dibenzyl-3,3-dimethyl-2-oxoindoline-6-carboxamide] | 1 to 10
6 | Cc1cc(CN2C(=O)C(C)(C)c3ccc(C(=O)NCc4c(F)cc(F)cc4F)cc32)cc(C(F)(F)F)c1 [Example 15, 3,3-dimethyl-1-(3-methyl-5-(trifluoromethyl)benzyl)-2-oxo-N-(2,4,6-trifluorobenzyl)indoline-6-carboxamide] | 1 to 10
7 | CC1(C)C(=O)N(Cc2cccc(C(F)(F)F)c2)c2cc(C(=O)NCc3c(F)cc(F)cc3F)ccc21 [Example 17, 3,3-dimethyl-2-oxo-N-(2,4,6-trifluorobenzyl)-1-(3-(trifluoromethyl)benzyl)indoline-6-carboxamide] | 1 to 10
8 | CC1C(=O)N(Cc2c(F)cccc2Cl)c2cc(C(=O)NCc3c(F)cc(F)cc3F)ccc21 (centres unmarked) [Example 21, 1-(2-chloro-6-fluorobenzyl)-3-methyl-2-oxo-N-(2,4,6-trifluorobenzyl)indoline-6-carboxamide] | > 10
9 | CC1(C)C(=O)N(Cc2ccncc2)c2cc(C(=O)NCc3c(F)cc(F)cc3F)ccc21 [Example 22, 3,3-dimethyl-2-oxo-1-(pyridin-4-ylmethyl)-N-(2,4,6-trifluorobenzyl)indoline-6-carboxamide] | 1 to 10
10 | Cc1ccc(CNC(=O)c2ccc3c(c2)N(Cc2c(F)cccc2Cl)C(=O)C3(C)C)s1 [Example 24, 1-(2-chloro-6-fluorobenzyl)-3,3-dimethyl-N-((5-methylthiophen-2-yl)methyl)-2-oxoindoline-6-carboxamide] | 1 to 10
11 | Cc1cccc(CNC(=O)c2ccc3c(c2)N(Cc2cc(F)cc(F)c2)C(=O)C3(C)C)n1 [Example 28, 1-(3,5-difluorobenzyl)-3,3-dimethyl-N-((6-methylpyridin-2-yl)methyl)-2-oxoindoline-6-carboxamide] | > 10
12 | Cc1nnc(CNC(=O)c2ccc3c(c2)N(Cc2cc(F)cc(F)c2)C(=O)C3(C)C)o1 [Example 29, 1-(3,5-difluorobenzyl)-3,3-dimethyl-N-((5-methyl-1,3,4-oxadiazol-2-yl)methyl)-2-oxoindoline-6-carboxamide] | > 10
13 | Cc1ncc(CNC(=O)c2ccc3c(c2)N(Cc2c(F)cccc2Cl)C(=O)C3(C)C)o1 [Example 31, 1-(2-chloro-6-fluorobenzyl)-3,3-dimethyl-N-((2-methyloxazol-5-yl)methyl)-2-oxoindoline-6-carboxamide] | > 10
14 | Cc1ccnc(CNC(=O)c2ccc3c(c2)N(Cc2c(F)cccc2Cl)C(=O)C3(C)C)c1 [Example 32, 1-(2-chloro-6-fluorobenzyl)-3,3-dimethyl-N-((4-methylpyridin-2-yl)methyl)-2-oxoindoline-6-carboxamide] | > 10
15 | CC1(C)C(=O)N(Cc2cc(F)cc(F)c2)c2c1ccc(C(=O)NCc1cc3ccccc3o1)c2F [Example 34, N-(benzofuran-2-ylmethyl)-1-(3,5-difluorobenzyl)-7-fluoro-3,3-dimethyl-2-oxoindoline-6-carboxamide] | > 10
16 | CC1(C)C(=O)N(Cc2cc(F)cc(F)c2)c2c1ccc(C(=O)NCc1c(F)cc(F)cc1F)c2F [Example 35, 1-(3,5-difluorobenzyl)-7-fluoro-3,3-dimethyl-2-oxo-N-(2,4,6-trifluorobenzyl)indoline-6-carboxamide] | > 10
17 | CC1(C)C(=O)N(Cc2cccc(C(N)=O)c2)c2cc(C(=O)NCc3ccc(F)cc3F)ccc21 [Example 38, 1-(3-carbamoylbenzyl)-N-(2,4-difluorobenzyl)-3,3-dimethyl-2-oxoindoline-6-carboxamide] | 1 to 10
18 | CC1(C)C(=O)N(Cc2cc(F)cc(F)c2)c2cc(C(=O)NCC3CCC(F)(F)C3)ccc21 (centres unmarked) [Example 39, 1-(3,5-difluorobenzyl)-N-((3,3-difluorocyclopentyl)methyl)-3,3-dimethyl-2-oxoindoline-6-carboxamide] | > 10
19 | CC1(C)C(=O)N(Cc2cc(F)cc(F)c2)c2cc(C(=O)NCc3nc4ccccc4s3)ccc21 [Example 40, N-(benzo[d]thiazol-2-ylmethyl)-1-(3,5-difluorobenzyl)-3,3-dimethyl-2-oxoindoline-6-carboxamide] | 1 to 10
20 | CC1(C)C(=O)N(Cc2ccc(F)cc2)c2cc(C(=O)NCc3ccco3)ccc21 [Example 41, 1-(4-fluorobenzyl)-N-(furan-2-ylmethyl)-3,3-dimethyl-2-oxoindoline-6-carboxamide] | 1 to 10

Results, then the compound that gave them:

Row | EC50 [µM] | SMILES
21 | > 10 | CC1(C)C(=O)N(Cc2cccc(F)c2)c2cc(C(=O)NCc3ccco3)ccc21 [Example 42, 1-(3-fluorobenzyl)-N-(furan-2-ylmethyl)-3,3-dimethyl-2-oxoindoline-6-carboxamide]
22 | > 10 | CC1(C)C(=O)N(Cc2cc(F)cc(F)c2)c2cc(C(=O)NCC3CCC(F)(F)CC3)ccc21 [Example 43, 1-(3,5-difluorobenzyl)-N-((4,4-difluorocyclohexyl)methyl)-3,3-dimethyl-2-oxoindoline-6-carboxamide]
23 | > 10 | CC1(C)C(=O)N(Cc2cc(F)cc(F)c2)c2cc(C(=O)NCc3cccc(C#N)c3)ccc21 [Example 44, N-(3-cyanobenzyl)-1-(3,5-difluorobenzyl)-3,3-dimethyl-2-oxoindoline-6-carboxamide]
24 | > 10 | CC1(C)C(=O)N(Cc2cc(F)cc(F)c2)c2cc(C(=O)NCc3cccc(C(F)(F)F)c3)ccc21 [Example 45, 1-(3,5-difluorobenzyl)-3,3-dimethyl-2-oxo-N-(3-(trifluoromethyl)benzyl)indoline-6-carboxamide]
25 | 1 to 10 | CC1(C)C(=O)N(Cc2ccc(F)c(F)c2)c2cc(C(=O)NCc3ccco3)ccc21 [Example 46, 1-(3,4-difluorobenzyl)-N-(furan-2-ylmethyl)-3,3-dimethyl-2-oxoindoline-6-carboxamide]
26 | 1 to 10 | CC1(C)C(=O)N(Cc2cc(F)cc(F)c2)c2cc(C(=O)NCc3cccc(N=[N+]=[N-])c3)ccc21 [Example 47, N-(3-azidobenzyl)-1-(3,5-difluorobenzyl)-3,3-dimethyl-2-oxoindoline-6-carboxamide]
27 | 1 to 10 | CC1(C)C(=O)N(Cc2ccnc(F)c2)c2cc(C(=O)NCc3c(F)cc(F)cc3F)ccc21 [Example 49, 1-((2-fluoropyridin-4-yl)methyl)-3,3-dimethyl-2-oxo-N-(2,4,6-trifluorobenzyl)indoline-6-carboxamide]
28 | 1 to 10 | Cc1ccc(CNC(=O)c2ccc3c(c2)N(Cc2ccccc2Cl)C(=O)C3(C)C)o1 [Example 51, 1-(2-chlorobenzyl)-3,3-dimethyl-N-((5-methylfuran-2-yl)methyl)-2-oxoindoline-6-carboxamide]
29 | > 10 | Cc1cc(CN2C(=O)C(C)(C)c3ccc(C(=O)NCc4c(F)cc(F)cc4F)cc32)on1 [Example 52, 3,3-dimethyl-1-((3-methylisoxazol-5-yl)methyl)-2-oxo-N-(2,4,6-trifluorobenzyl)indoline-6-carboxamide]
30 | > 10 | CC1C(=O)N(Cc2cc(F)cc(F)c2)c2cc(C(=O)NCc3c(F)cc(F)cc3F)ccc21 (centres unmarked) [Example 53, 1-(3,5-difluorobenzyl)-3-methyl-2-oxo-N-(2,4,6-trifluorobenzyl)indoline-6-carboxamide]
31 | > 10 | Cc1cc(CN2C(=O)C(C)(C)c3ccc(C(=O)NCc4ccc(C)o4)cc32)ccn1 [Example 55, 3,3-dimethyl-N-((5-methylfuran-2-yl)methyl)-1-((2-methylpyridin-4-yl)methyl)-2-oxoindoline-6-carboxamide]
32 | 1 to 10 | Cc1ncc(CN2C(=O)C(C)(C)c3ccc(C(=O)NCc4c(F)cc(F)cc4F)cc32)s1 [Example 58, 3,3-dimethyl-1-((2-methylthiazol-5-yl)methyl)-2-oxo-N-(2,4,6-trifluorobenzyl)indoline-6-carboxamide]
